We go through 5 compounds from patent US20060004029A1, “Nitrogen-containing aromatic derivatives” (priority 2003, published 2006).

The test system of test [1] is Human Umbilical Vein Endothelial Cells (HUVECs). Briefly: Inhibition against sandwich tube formation by vascular endothelial cells, VEGF-stimulated. Particulars: HUVEC, 25 ng/ml VEGF and 10 ng/ml EGF, 4th day after addition. It counts as cell-based. How it is done: Human Umbilical Vein Endothelial Cells (HUVECs) were isolated according to a reported method (Shinseikagaku Jikken Koza [New Biochemistry Experiment Lectures], “Saibo Baiyo Gijutsu” [Cell Culturing Techniques], p. 197-202), • and were cultured in a 5% CO2 incubator (37° C.) using EGM-2 medium (purchased from Clonetics Corp.) until the cells reached confluency.
An ice-cooled mixture of collagen: 5×RPMI 1640: reconstitution buffer (all purchased from Nitta Gelatin, Inc.) at 7:2:1 was dispensed at 0.4 ml into each well of a 24-well plate. After the solution was gelled by being stationed for 40 minutes in a 5% CO2 incubator (37° C.), HUVEC cell suspension was added at 0.4 ml to each well (using 1 to 1.2×10^5 cells, though the numbers of cells differ slightly according to the HUVEC lot), the HUVEC cell suspension being in human endothelial serum free medium (SFM, purchased from GIBCO BRL) containing added angiogenesis factors [20 ng/ml FGF2 (purchased from GIBCO BRL) and 10 ng/ml EGF (purchased from GIBCO BRL), or 25 ng/ml VEGF (purchased from Wako Pure Chemical Industries Co., Ltd.) and 10 ng/ml EGF, or 30 ng/ml HGF (purchased from R&D Co.) and 10 ng/ml EGF], and cultured overnight in a 5% CO2 incubator (37° C.). On the following day, the medium on the upper layer was aspirated off, and then 0.4 ml of an ice-cooled mixture of collagen: 5×RPMI 1640: reconstitution buffer (all purchased from Nitta Gelatin, Inc.) at 7:2:1 was superposed into each well prior to stationing for 4 hours in a 5% CO2 incubator (37° C.) for gelling. After adding 1.5 ml of an SFM solution containing each of the aforementioned angiogenesis factors and a diluted test substance onto the upper layer, culturing was performed in a 5% CO2 incubator (37° C.). Upon aspirating off the culture supernatant in each well on the 4th day after addition of the test substance, 0.4 ml of a 3.3 mg/ml MTT solution dissolved in PBS (purchased from Sigma Corp.) was added to each well and culturing was performed for approximately 2 hours in a 5% CO2 incubator (37° C.). The tubes formed in the collagen gel of each well were stained by MTT, the tube images were loaded into a computer (Macintosh), and the total length of the tubes was determined by image analysis software “MacScope” (purchased from Mitani Corp.). The ratio of the total length of the tubes formed in the well containing the test substance with respect to the total length of the tubes formed in the well containing no test substance was expressed as a percentage, and the concentration of each test substance required for 50% inhibition of tube formation (IC50) was determined from the ratio value.

For the next test, the system named is KP-1/VEGF cells. Briefly: Antitumor activity on KP-1/VEGF cells in subcutaneous xenograft models. The class given is in vivo, mouse. Particulars: oral twice a day, 2 weeks (5 days per week), Balb/c (nu/nu) mice. As for the experimental part:
VEGF high-expressing pancreatic cancer cells (KP-1/VEGF) suspended in PBS at a concentration of 1×10^7 cells/ml were transplanted under the right flank skin of 6-week-old female Balb/c (nu/nu) mice in a volume of 0.1 ml. When the tumor volume reached approximately 100 mm^3, the test substance was orally administered twice a day over a period of 2 weeks with a schedule of 5 days per week. The test substance was suspended in 0.5% methyl cellulose for an administered volume of 0.1 ml/10 g body weight. The tumor size was measured twice a week using a micrometer caliper. The tumor volume was determined by measuring the long and short diameters of the tumor with a micrometer caliper, and calculating ½×(long diameter×short diameter×short diameter). The experiment was conducted using 10 mice in the control (solvent-administered) group and 5 mice in each test substance-administered group.

Test [2] has as its system KP-1/VEGF human pancreatic cancer cells. Briefly: In vivo angiogenesis-inducing activity using mouse dorsal air sac model. Particulars: oral, once a day, C57BL/6N female mice, 4th day. As for the experimental part: PCR was conducted using a human placenta cDNA library (Toyobo Co., Ltd.) as the template and the SEQ ID NO:1 (5′[…]3′) and SEQ ID NO:2 (5′[…]3′) of VEGF as primers. After completion of the PCR reaction, the 5′ ends were phosphorylated and an approximately 600 bp DNA band was separated by 1.2% agarose gel electrophoresis. After polymerization by self-ligation, the cDNA was cut with EcoRI and BamHI and inserted into the EcoRI and BamHI sites of vector pUC19. This was used to transform E. coli JM83, and plasmids were recovered from the transformed clones. A VEGF cDNA fragment was cut out of the plasmids with HindIII and EcoRI and then inserted into pIRES2-rsGFP vector to yield pIRES2-rsGFP/VEGF for protein expression.
After overnight culturing of KP-1 human pancreatic cancer cells (3×10^6 cells) with 10% FCS-containing RPMI 1640 medium, an Effectene Transfection Reagent Kit (Qiagen) was used for introduction of 3 μg of pIRES2-rsGFP/VEGF into the KP-1 cells. After culturing in 10% FCS-containing RPMI 1640 medium containing 600 μg/ml of Geneticin, drug-resistant cells were selected. Furthermore, GFP high-expressing cells were collected by cell sorter (Becton Dickinson) as VEGF high-expressing KP-1 cells (KP-1/VEGF).
The KP-1/VEGF cells were prepared to 5×10^5 cells/ml, and 0.5 ml thereof was dispensed into each well of a 24-well plate and cultured at 37° C. for 24 hours. The culture supernatants were collected and the VEGF levels thereof measured using a VEGF measuring kit (IBL Co., Ltd.) for confirmation of high expression.
Millipore rings (Nihon Millipore) were sealed with 0.45 μm Durapore filter membranes (Nihon Millipore) to create chambers. KP-1/VEGF human pancreatic cancer cells (3×10^6) suspended in 0.17 ml of collagen gel were injected into each chamber through the injection port, and the chambers were sealed. Approximately 10 ml of air was then injected in the dorsal skin of 6-week-old C57BL/6N female mice under anesthesia to produce pouches, and the prepared chambers were transplanted therein. About 6 hours after completing transplantation, a test substance suspended in 0.5% methyl cellulose was orally administered (0.1 ml/10 g body weight), and this was continued once a day for the next 4 days.
On the 4th day after transplanting the chambers, 0.2 ml of ^51Cr (Amersham Pharmacia)-labeled mouse erythrocytes (2.5×10^6 cpm/ml) were injected through the caudal veins of each of the mice with the transplanted chambers. After a prescribed period, the skin in contact with the chamber was excised and frozen, the section in direct contact with the chamber was precisely cut off, and the radioactivity was measured with a Y-counter. The blood volume was calculated from the radioactivity and used as an index of the in vivo angiogenesis-inducing activity. The angiogenesis volume was recorded as this measured blood volume minus the blood volume obtained with transplantation of a chamber containing only collagen gel. The experiment was conducted using 10 mice in the control (solvent-administered) group and 5 mice in each compound-administered group.

Take `CNC(=O)n1ccc2cc(Oc3ccnc(NC(=O)N4CCC(O)CC4)c3)ccc21` [Example 39, N1-Methyl-5-(2-((4-hydroxypiperidino)carbonyl)amino-4-pyridyl)oxy-1H-1-indolecarboxamide]: in test [1], the half-maximal inhibitory concentration (IC50) was 5.1 nM.

For the compound `CNC(=O)n1ccc2cc(Oc3ccnc(NC(=O)N4CCC(C)(O)CC4)c3)ccc21` [Example 41, 5-(2-(((4-Hydroxy-4-methylpiperidin-1-yl)carbonyl)amino)pyridin-4-yloxy)-1H-1-indole-1-carboxylic acid methylamide], in test [1], inhibition was half-maximal at 2.1 nM (IC50).

Compound `CNC(=O)n1ccc2cc(Oc3ccnc(NC(=O)N4CCC(N5CCCC5)CC4)c3)ccc21` [Example 46, N1-Methyl-5-(2-(((4-(pyrrolidin-1-yl)piperidin-1-yl)carbonyl)amino)pyridin-4-yloxy)-1H-1-indolecarboxamide] had an IC50 in test [1] of 7 nM. Also, the “proportion of the tumor volume after administering test substance to that of control” value (from here on “proportion of the tumor volume”) with KP-1/VEGF cells (6 mg/kg/day) amounted to 77.7%; with KP-1/VEGF cells (20 mg/kg/day), 59.3%; in the test with KP-1/VEGF cells (60 mg/kg/day), 60.0%; in the test on KP-1/VEGF cells (200 mg/kg/day), 36.2%. Besides, the entries for the “proportion of the angiogenesis amount after administering test substance to that of control” value (shortened to “proportion of the angiogenesis amount”) in test [2] (30 mg/kg/day) and in test [2] (100 mg/kg/day) were 59.9% and 43.7%, respectively.

Compound `CNC(=O)n1ccc2cc(Oc3ccnc(NC(=O)N4CCC(N5CCCCC5)CC4)c3)ccc21` [Example 47, N1-Methyl-5-(2-(((4-(piperidin-1-yl)piperidin-1-yl)carbonyl)amino)pyridin-4-yloxy)-1H-1-indolecarboxamide] came in with an IC50 in test [1] of 5.8 nM. The “proportion of the tumor volume” value in the test on KP-1/VEGF cells (6 mg/kg/day) is on record as 80.5%; with KP-1/VEGF cells (20 mg/kg/day), 64.6%; in the test with KP-1/VEGF cells (60 mg/kg/day), 45.3%; with KP-1/VEGF cells (200 mg/kg/day) it was 33.6%. The entries for the “proportion of the angiogenesis amount” value in test [2] (30 mg/kg/day) and in test [2] (100 mg/kg/day) were 87.4% and 39.5%, respectively.

Regarding `CNC(=O)n1ccc2cc(Oc3ccnc(NC(=O)N4CCOCC4)c3)ccc21` [Example 53, N4-(4-(1-(Methylamino)carbonyl-1H-5-indolyl)oxy-2-pyridyl)-4-morpholinecarboxamide], the 50% inhibitory concentration (IC50) in test [1] was 6.7 nM. Also, the “proportion of the tumor volume” value is on record as 73.1% with KP-1/VEGF cells (6 mg/kg/day), 60.4% in the test with KP-1/VEGF cells (20 mg/kg/day), 48.4% in the test with KP-1/VEGF cells (60 mg/kg/day) and 37.9% in the test on KP-1/VEGF cells (200 mg/kg/day). The “proportion of the angiogenesis amount” value in test [2] (30 mg/kg/day) came to 43.3%; in test [2] (100 mg/kg/day) it was 44.4%.

As a reminder, the IC50 is the concentration that gives 50% inhibition. Low readings indicate greater potency in that assay, high ones weaker potency in that assay.
